Measured values published in ChEMBL document CHEMBL1148013, “Synthesis, biological evaluation and molecular modeling studies of arylidene-thiazolidinediones with potential hypoglycemic and hypolipidemic activities” (2007).

What was measured:
Type in all cases: functional
Set-up in all cases: scale not given: the % may be the effect or the level left
Mus musculus [1] = test: Reduction in plasma triglyceride level in alloxan-induced diabetic mouse at 5 mg/kg/day, po after 15 days relative to control
Mus musculus [2] = test: Reduction in plasma glucose level in alloxan-induced diabetic mouse at 5 mg/kg/day, po after 15 days relative to control
Mus musculus [3] = test: Reduction in plasma glucose level in alloxan-induced diabetic mouse at 30 mg/kg/day, po after 15 days relative to control
Mus musculus [4] = test: Reduction in plasma glucose level in alloxan-induced diabetic mouse at 10 mg/kg/day, po after 15 days relative to control
Mus musculus [5] = test: Reduction in plasma triglyceride level in alloxan-induced diabetic mouse at 10 mg/kg/day, po after 15 days relative to control
Mus musculus [6] = test: Reduction in plasma triglyceride level in alloxan-induced diabetic mouse at 30 mg/kg/day, po after 15 days relative to control
Mus musculus [7] = test: Reduction in plasma glucose level in alloxan-induced diabetic mouse at 40 mg/kg/day, po after 15 days relative to control
Mus musculus [8] = test: Reduction in plasma triglyceride level in alloxan-induced diabetic mouse at 20 mg/kg/day, po after 15 days relative to control
Mus musculus [9] = test: Reduction in plasma glucose level in alloxan-induced diabetic mouse at 20 mg/kg/day, po after 15 days relative to control
Mus musculus [10] = test: Reduction in plasma triglyceride level in alloxan-induced diabetic mouse at 40 mg/kg/day, po after 15 days relative to control

Structure (SMILES)	Activity (Mus musculus [1]) [%]	Activity (Mus musculus [2]) [%]	Activity (Mus musculus [3]) [%]	Activity (Mus musculus [4]) [%]	Activity (Mus musculus [5]) [%]	Activity (Mus musculus [6]) [%]	Activity (Mus musculus [7]) [%]	Activity (Mus musculus [8]) [%]	Activity (Mus musculus [9]) [%]	Activity (Mus musculus [10]) [%]
COc1ccc(/C=C2\SC(=O)N(Cc3ccc(C)cc3)C2=O)cc1	32.2	27.2	50.8	20.6	37.6	58.8				
COc1ccc(/C=C2\SC(=O)N(Cc3ccc(C)cc3)C2=O)c(OC)c1			34.6	21.8	40	46.5	20.1			
Cc1ccc(CN2C(=O)S/C(=C\c3ccc(O)cc3)C2=O)cc1			37.3	19.9			37.2			
Cc1ccc(CN2C(=O)S/C(=C\c3ccc(F)cc3)C2=O)cc1			13.5							
Cc1ccc(CN2C(=O)S/C(=C\c3ccccc3Cl)C2=O)cc1			43.3	19.2	14.8	26		20	47	
Cc1ccc(CN2C(=O)S/C(=C\c3cccc(Br)c3)C2=O)cc1				21.3	17.6					
Cc1ccc(CN2C(=O)S/C(=C\c3ccc(N(C)C)cc3)C2=O)cc1			40.8	14.9		44.1		17.4	35.8	
Cc1ccc(CN2C(=O)S/C(=C\c3ccc(Cl)cc3)C2=O)cc1			22.8	18.7		48	31.5			27.1
Cc1ccc(/C=C2\SC(=O)N(Cc3ccc(C)cc3)C2=O)cc1				16.3	41.7					
Cc1ccc(CN2C(=O)S/C(=C\c3ccc([N+](=O)[O-])cc3)C2=O)cc1			11.42			7.1				
CN(CCOc1ccc(CC2SC(=O)NC2=O)cc1)c1ccccn1 (stereo not drawn) [ROSIGLITAZONE]	15.9	26.3	11.6	36.7	43.3	6.4				
